Results taken from patent US20230393140A1, “BINDING ASSAYS INVOLVING A PLURALITY OF SYNTHETIC COMPOUNDS, TARGETS, AND COUNTER TARGETS” (SRI International, priority 2020, published 2023).
Numbered stars: 1 amine (or outer) side, 2 acyl side, 3 side chain; on linkers, the order of the positions; unused ones are H or OH. Square brackets hold non-standard residues; d marks the D form. Peptide text beside a SMILES is read from it. * marks the point of attachment. 5FAM = O=C1OC2(c3ccc(O)cc3Oc3cc(O)ccc32)c2ccc(C(=O)*)cc21; NHCH2C6H4(4-CH2CONH2) = NC(=O)Cc1ccc(CN*)cc1; X1 = O=C(Cc1ccc(CN[*:1])cc1)[*:2]

Molecular target: TNFα (Homo sapiens, UniProt P01375)
Assay: MST binding affinity of resynthesized NNP hits to TNFα
Set-up: purchased R&D Systems, Inc. 210-TA/CF
Conditions: read-out: KD (nM) [95% conf. int], NNP2 library hit, target TNFα, one-site binding model
Experimental: Hit binding affinity to various targets were determined using Microscale Thermophoresis (MST). MST experiments were performed on a Monolith NT.115pico (NanoTemper Technologies GmbH, Munich, Germany). Measurements were performed at room temperature, in triplicate with incubation periods of 15, 30 and 45 minutes. […] Targets were labeled using Nanotemper Monolith 2nd Generation Protein Labeling Kits. RED-MALEIMIDE (Maleimide-647-dye) labeling kit was used for K-Ras and RED-NHS (NHS-647-dye) labeling kit was used for IL-6, IL-6R, TNFα and ASGPR. The buffer for the ASGPR contained 20 mM HEPES pH 7.4, 150 mM NaCl, 10 mM MgCl2, 2 mM CaCl2, 0.05% Pluronic F-127, and 1 mM DTT; for IL-6 contained 20 mM HEPES pH 7.4, 150 mM KCl, 10 mM MgCl2, and 0.1% Pluronic F-127; for the soluble IL-6 receptor 20 mM HEPES pH 7.4, 150 mM NaCl, 10 mM MgCl2, and 0.05% Tween-20; for K-Ras 20 mM HEPES pH 7.4, 150 mM NaCl, 10 mM MgCl2, 0.05% Tween-20 and 1 mM DTT; for TNFα 10 mM HEPES pH 7.4, 150 mM NaCl, 10 mM MgCl2, 0.05% Polysorbate-20. Triplicate data was analyzed using MO.AffinityAnalysis software (NanoTemper Technologies GmbH).

Chain of TNFα (P01375 77-233 limits assumed): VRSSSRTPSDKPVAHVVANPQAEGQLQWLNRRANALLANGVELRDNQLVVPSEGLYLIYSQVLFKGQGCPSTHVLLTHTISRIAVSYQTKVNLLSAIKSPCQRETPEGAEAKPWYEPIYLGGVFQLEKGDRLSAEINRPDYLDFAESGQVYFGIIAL

Structure (SMILES)	Kd [nM]
CC(C)C[C@H](NC(=O)[C@@H](CCCNC(=N)N)NC(=O)[C@@H](C)NC(=O)Cc1ccc(CNC(=O)[C@H](Cc2ccccc2)NC(=O)[C@@H](CCCNC(=N)N)NC(=O)[C@@H](CC(N)=O)NC(=O)Cc2ccc(CNC(=O)[C@H](Cc3ccccc3)NC(=O)[C@@H](CCCCN)NC(=O)[C@@H](C)NC(=O)Cc3ccc(CNC(=O)[C@H](C)NC(=O)[C@@H](CCCNC(=N)N)NC(=O)[C@@H](Cc4ccccc4)NC(=O)Cc4ccc(CNC(=O)[C@H](CC(C)C)NC(=O)[C@@H](CCCCN)NC(=O)[C@@H](CC(C)C)NC(=O)Cc5ccc(CNC(=O)[C@H](CC(C)C)NC(=O)[C@@H](CCCNC(=N)N)NC(=O)[C@@H](CC(C)C)NC(=O)Cc6ccc(CNC(=O)[C@H](CC(C)C)NC(=O)[C@@H](CC(C)C)NC(=O)[C@@H](Cc7ccc(O)cc7)NC(=O)c7ccc8c(c7)C(=O)OC87c8ccc(O)cc8Oc8cc(O)ccc87)cc6)cc5)cc4)cc3)cc2)cc1)C(=O)NCc1ccc(CC(=O)N[C@H](Cc2c[nH]c3ccccc23)C(=O)N[C@H](CCCCN)C(=O)N[C@@H](CC(C)C)C(=O)NCc2ccc(CC(=O)N3CCC[C@@H]3C(=O)N[C@H](C)C(=O)N[C@@H](C)C(=O)NCc3ccc(CC(N)=O)cc3)cc2)cc1 [TNF-31-14] (5FAM-[dY][dL]L[X1][dL][dR]L[X1][dL][dK]L[X1][dF][dR]A[X1][dA][dK]F[X1][dN][dR]F[X1][dA][dR]L[X1][dW][dK]L[X1][dP][dA]A-{NHCH2C6H4(4-CH2CONH2)})	35
CC(C)C[C@H](NC(=O)[C@@H](CCCNC(=N)N)NC(=O)[C@@H](CCC(=O)O)NC(=O)Cc1ccc(CNC(=O)[C@H](C)NC(=O)[C@@H](CCCCN)NC(=O)[C@@H](Cc2ccc(O)cc2)NC(=O)Cc2ccc(CNC(=O)[C@H](C)NC(=O)[C@@H](CCCNC(=N)N)NC(=O)[C@@H](Cc3ccccc3)NC(=O)Cc3ccc(CNC(=O)[C@H](CC(C)C)NC(=O)[C@H](NC(=O)[C@@H](CCCNC(=N)N)NC(=O)Cc4ccc(CNC(=O)[C@H](CC(C)C)NC(=O)[C@@H](CCCNC(=N)N)NC(=O)[C@@H](CC(C)C)NC(=O)Cc5ccc(CNC(=O)[C@H](CC(C)C)NC(=O)[C@H](NC(=O)[C@@H](CCCCN)NC(=O)c6ccc7c(c6)C(=O)OC76c7ccc(O)cc7Oc7cc(O)ccc76)C(C)C)cc5)cc4)C(C)C)cc3)cc2)cc1)C(=O)NCc1ccc(CC(=O)N2CCC[C@@H]2C(=O)N[C@@H](C(=O)NCC(=O)NCc2ccc(CC(=O)N[C@H](CCCCN)C(=O)N[C@H](Cc3ccccc3)C(=O)N[C@@H](Cc3ccccc3)C(=O)NCc3ccc(CC(=O)N[C@H](Cc4c[nH]cn4)C(=O)N[C@H](CCC(=O)O)C(=O)N[C@H](C(=O)NCc4ccc(CC(N)=O)cc4)C(C)C)cc3)cc2)C(C)C)cc1 [TNF-31-15] (5FAM-[dK][dV]L[X1][dL][dR]L[X1][dR][dV]L[X1][dF][dR]A[X1][dY][dK]A[X1][dE][dR]L[X1][dP][dV]G[X1][dK][dF]F[X1][dH][dE]V-{NHCH2C6H4(4-CH2CONH2)})	23
CC(C)C[C@H](NC(=O)[C@@H](CCC(=O)O)NC(=O)[C@H]1CCCN1C(=O)Cc1ccc(CNC(=O)[C@H](CC(C)C)NC(=O)[C@@H](CCCCN)NC(=O)[C@@H](Cc2ccccc2)NC(=O)Cc2ccc(CNC(=O)[C@@H](NC(=O)[C@@H](CCC(=O)O)NC(=O)[C@@H](Cc3ccccc3)NC(=O)Cc3ccc(CNC(=O)[C@H](CC(C)C)NC(=O)[C@@H](CCCNC(=N)N)NC(=O)[C@@H](CC(C)C)NC(=O)Cc4ccc(CNC(=O)[C@H](CC(C)C)NC(=O)[C@H](NC(=O)[C@@H](CCCCN)NC(=O)c5ccc6c(c5)C(=O)OC65c6ccc(O)cc6Oc6cc(O)ccc65)C(C)C)cc4)cc3)C(C)C)cc2)cc1)C(=O)NCc1ccc(CC(=O)N[C@H](Cc2ccccc2)C(=O)N[C@@H](C(=O)N[C@@H](C)C(=O)NCc2ccc(CC(=O)N[C@H](Cc3c[nH]cn3)C(=O)N[C@H](CCC(=O)O)C(=O)N[C@@H](CC(C)C)C(=O)NCc3ccc(CC(=O)N[C@H](CCC(=O)O)C(=O)N[C@H](Cc4ccc(O)cc4)C(=O)N[C@@H](Cc4ccccc4)C(=O)NCc4ccc(CC(=O)N[C@@H](C(=O)N[C@H](CO)C(=O)N[C@H](C(=O)NCc5ccc(CC(N)=O)cc5)C(C)C)[C@H](C)O)cc4)cc3)cc2)[C@H](C)O)cc1 [TNF-31-16] (5FAM-[dK][dV]L[X1][dL][dR]L[X1][dF][dE]V[X1][dF][dK]L[X1][dP][dE]L[X1][dF][dT]A[X1][dH][dE]L[X1][dE][dY]F[X1][dT][dS]V-{NHCH2C6H4(4-CH2CONH2)})	180
CC(C)C[C@H](NC(=O)[C@@H](CCCNC(=N)N)NC(=O)[C@@H](CC(C)C)NC(=O)Cc1ccc(CNC(=O)[C@H](CC(C)C)NC(=O)[C@H](NC(=O)[C@@H](CCCCN)NC(=O)c2ccc3c(c2)C(=O)OC32c3ccc(O)cc3Oc3cc(O)ccc32)C(C)C)cc1)C(=O)NCc1ccc(CC(=O)N[C@H](CCCNC(=N)N)C(=O)N[C@@H](C(=O)N[C@@H](CC(C)C)C(=O)NCc2ccc(CC(=O)N[C@H](Cc3ccccc3)C(=O)N[C@H](CCCNC(=N)N)C(=O)N[C@@H](C)C(=O)NCc3ccc(CC(=O)N[C@H](C)C(=O)N[C@H](CCCCN)C(=O)N[C@@H](Cc4ccccc4)C(=O)NCc4ccc(CC(=O)N[C@H](CC(N)=O)C(=O)N[C@H](CCCNC(=N)N)C(=O)N[C@@H](Cc5ccccc5)C(=O)NCc5ccc(CC(=O)N6CCC[C@@H]6C(=O)N[C@@H](C(=O)NCC(=O)NCc6ccc(CC(=O)N[C@H](CCC(=O)O)C(=O)N[C@H](CCCNC(=N)N)C(=O)N[C@H](C(=O)NCc7ccc(CC(=O)N[C@H](Cc8ccc(O)cc8)C(=O)N[C@H](CCCNC(=N)N)C(=O)N[C@@H](Cc8ccccc8)C(=O)NCc8ccc(CC(N)=O)cc8)cc7)C(C)C)cc6)C(C)C)cc5)cc4)cc3)cc2)C(C)C)cc1 [TNF-39-1] (5FAM-[dK][dV]L[X1][dL][dR]L[X1][dR][dV]L[X1][dF][dR]A[X1][dA][dK]F[X1][dN][dR]F[X1][dP][dV]G[X1][dE][dR]V[X1][dY][dR]F-{NHCH2C6H4(4-CH2CONH2)})	116
CC(C)C[C@H](NC(=O)[C@@H](CCCNC(=N)N)NC(=O)CNC(=O)Cc1ccc(CNC(=O)[C@H](CC(C)C)NC(=O)[C@@H](CC(C)C)NC(=O)[C@@H](Cc2ccc(O)cc2)NC(=O)c2ccc3c(c2)C(=O)OC32c3ccc(O)cc3Oc3cc(O)ccc32)cc1)C(=O)NCc1ccc(CC(=O)N[C@H](Cc2ccccc2)C(=O)N[C@H](CCC(=O)O)C(=O)N[C@H](C(=O)NCc2ccc(CC(=O)N[C@H](Cc3c[nH]c4ccccc34)C(=O)N[C@H](CCCNC(=N)N)C(=O)N[C@@H](CC(C)C)C(=O)NCc3ccc(CC(=O)N[C@H](Cc4c[nH]c5ccccc45)C(=O)N[C@H](CCCNC(=N)N)C(=O)N[C@H](C(=O)NCc4ccc(CC(=O)N[C@H](CCCNC(=N)N)C(=O)N[C@H](Cc5ccc(O)cc5)C(=O)N[C@@H](CC(C)C)C(=O)NCc5ccc(CC(=O)N6CCC[C@@H]6C(=O)NCC(=O)N[C@H](C(=O)NCc6ccc(CC(=O)N[C@H](Cc7c[nH]cn7)C(=O)N[C@H](CO)C(=O)N[C@@H](CC(C)C)C(=O)NCc7ccc(CC(=O)N[C@H](Cc8ccccc8)C(=O)N[C@H](CCCCN)C(=O)NCC(=O)NCc8ccc(CC(N)=O)cc8)cc7)cc6)C(C)C)cc5)cc4)C(C)C)cc3)cc2)C(C)C)cc1 [TNF-39-2] (5FAM-[dY][dL]L[X1]G[dR]L[X1][dF][dE]V[X1][dW][dR]L[X1][dW][dR]V[X1][dR][dY]L[X1][dP]GV[X1][dH][dS]L[X1][dF][dK]G-{NHCH2C6H4(4-CH2CONH2)})	200
CC(C)C[C@H](NC(=O)[C@@H](CCCCN)NC(=O)[C@@H](Cc1c[nH]c2ccccc12)NC(=O)Cc1ccc(CNC(=O)[C@@H](NC(=O)CNC(=O)[C@H]2CCCN2C(=O)Cc2ccc(CNC(=O)[C@H](CC(C)C)NC(=O)[C@@H](Cc3ccc(O)cc3)NC(=O)[C@@H](CCCNC(=N)N)NC(=O)Cc3ccc(CNC(=O)[C@H](Cc4ccccc4)NC(=O)[C@@H](CCCCN)NC(=O)[C@@H](C)NC(=O)Cc4ccc(CNC(=O)[C@H](C)NC(=O)[C@@H](CCCNC(=N)N)NC(=O)[C@@H](Cc5ccccc5)NC(=O)Cc5ccc(CNC(=O)[C@@H](NC(=O)[C@@H](CCC(=O)O)NC(=O)[C@@H](Cc6ccccc6)NC(=O)Cc6ccc(CNC(=O)[C@H](CC(C)C)NC(=O)[C@@H](CCCNC(=N)N)NC(=O)[C@@H](CC(C)C)NC(=O)Cc7ccc(CNC(=O)[C@H](Cc8ccccc8)NC(=O)[C@@H](CC(C)C)NC(=O)[C@H](NC(=O)c8ccc9c(c8)C(=O)OC98c9ccc(O)cc9Oc9cc(O)ccc98)[C@H](C)O)cc7)cc6)C(C)C)cc5)cc4)cc3)cc2)C(C)C)cc1)C(=O)NCc1ccc(CC(=O)N[C@H](Cc2ccc(O)cc2)C(=O)N[C@H](CCCNC(=N)N)C(=O)N[C@@H](Cc2ccccc2)C(=O)NCc2ccc(CC(N)=O)cc2)cc1 [TNF-39-3] (5FAM-[dT][dL]F[X1][dL][dR]L[X1][dF][dE]V[X1][dF][dR]A[X1][dA][dK]F[X1][dR][dY]L[X1][dP]GV[X1][dW][dK]L[X1][dY][dR]F-{NHCH2C6H4(4-CH2CONH2)})	130
